Drawing on paper PMC8792282 (Redox Biology, 2022), this text covers IC50 for 2 compounds.

The target of experiment [1] is T1, Protein disulfide isomerase (PDI) (Homo sapiens, UniProt P07237). Kind of experiment: insulin reduction assay. In kind it is biochemical.
The target of experiment [2] is T1, Protein disulfide isomerase (PDI). Kind of experiment: insulin reduction assay. In kind it is biochemical. The source holds these as a separate data set.

Read-outs that look alike come from different tables or passages of the source.

T1 sequence (P07237 18-508): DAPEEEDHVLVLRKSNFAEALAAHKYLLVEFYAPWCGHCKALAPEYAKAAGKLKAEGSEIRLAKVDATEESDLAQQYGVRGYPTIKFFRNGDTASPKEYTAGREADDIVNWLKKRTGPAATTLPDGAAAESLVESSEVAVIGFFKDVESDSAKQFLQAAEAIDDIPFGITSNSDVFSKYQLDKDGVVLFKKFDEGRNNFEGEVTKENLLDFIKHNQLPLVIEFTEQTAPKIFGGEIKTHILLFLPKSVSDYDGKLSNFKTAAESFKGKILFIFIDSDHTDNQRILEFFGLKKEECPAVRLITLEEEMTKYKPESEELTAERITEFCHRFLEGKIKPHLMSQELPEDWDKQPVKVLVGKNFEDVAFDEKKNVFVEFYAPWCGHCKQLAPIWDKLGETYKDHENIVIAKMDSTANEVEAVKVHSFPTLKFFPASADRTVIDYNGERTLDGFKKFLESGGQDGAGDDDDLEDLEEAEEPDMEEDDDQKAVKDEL

A word on the IC50: it is the concentration that inhibits the measured activity by half. Lower therefore signals greater potency. As for `C[C@@H]1O[C@@H](OC[C@H]2O[C@@H](Oc3c(-c4ccc(O)c(O)c4)oc4cc(O)cc(O)c4c3=O)[C@H](O)[C@@H](O)[C@@H]2O)[C@H](O)[C@H](O)[C@H]1O` [rutin], the IC50 in experiment [1] came out at 4500 nM.

For bepristat 2a, the IC50 in experiment [2] was found to be 700 nM.
